Reference: patent US12225917B2 (priority 2017, dated 2025)
Like-named read-outs stand apart in the source and are kept apart here.

How the values were obtained:
E. coli causing scour = assay: In vitro MIC against pig disease strains incl. scour-inducing E. coli (Example 5); assay type: cell-based; conditions: Escherichia coli
Clostridium Difficile = assay: In vitro MIC and MBC against Clostridium difficile (Example 6); assay type: cell-based
[1] = General safety in broilers reared to market weight by histology (Example 8); assay type: in vivo, broiler chickens
Text: This study evaluates the safety of IRP001 chloride in broilers through examination of histology.
The objective of this study was to test the general safety of IRP001 chloride in broilers reared to market weight by examination of histology.
The experiment consisted of the following treatments (1 pen per treatment, Table 54).
Birds were kept in a pen having an area of 4×10=40 ft^2, with clean wood shavings as bedding with a thickness of approximately 4 inches. The pen had 5 feet high side walls with a bottom 1 ½ feet being of solid wood to prevent bird migration.
The temperature of the building was monitored. Environmental conditions during the trial (temperature) were appropriate (optimum) to the age of the animals. Illumination was provided by fluorescent bulbs placed above the pens. The diets were provided ad libitum in one tube-type feeder per pen. From D0 until D7, feed was also supplied on a tray placed on the litter of each pen. Water was provided ad libitum from one Plasson drinker per pen.
Standard floor pen management practices were used throughout the experiment. Animals and housing facilities were inspected twice daily, observing and recording the general health status, constant feed and water supply as well as temperature, removing all dead birds, and recognizing unexpected events. Birds found dead during the study were noted on the Daily Mortality Record, and were not replaced. Pen number, the date of mortality, sex, weight, and diagnosis were recorded.
Day of hatch male Cobb chicks were obtained and ten male broiler chicks were placed in each pen. Accountabilities of all test animals and any extra birds were recorded on animal disposition form. The birds were sexed at the hatchery. The breeder flock history and vaccination record at the hatchery were recorded. Bird weights by pen were recorded on D0 and 42.
All weights were by pen. Treatment Starter feed was fed from D0 to 21. On D21, non-consumed Starter was weighed by pen and discarded. Grower feed was issued and fed until D35. On D35, non-consumed Grower was weighed by pen and discarded. Finisher feed was fed until D42. On D42, non-consumed Finisher was weighed by pen and discarded.
On the day of study completion (D42), five birds from each pen were humanly euthanized and upper, mid and lower gut sections plus liver lobe were collected and stored in neutral buffered formalin. Theses samples were shipped for analysis.

Clostridium Perfringens [2] = assay: microbe, parasite or virus in culture
[3] = Tissue residue study by LC-MS/MS after in-feed administration (Example 7): muscle and liver; conditions: for Mean residue, Breast / Mean residue, Lower leg / Mean residue, Upper leg / Mean residue IRP001, Liver: n = 3
[4] = tested on: Eimeria acervulina, E. maxima, and E. tenella; assay: Anticoccidial efficacy/sensitivity cage study (Example 9): lesion scores, oocysts per gram fecal material, coccidiosis mortality; conditions: for % Cocci Mort.: Day 0-20, infected
Clostridium Perfringens [5] = tested on: Clostridium Perfringens
[6] = IRP001 0.05 g/kg in feed, pen 2
[7] = Group 1, 0.03 g/kg IRP001 in feed (0-35 days), 0 days of washout
[8] = Group 2, 0.03 g/kg IRP001 in feed (0-35 days), 1 day of washout
[9] = Group 3, 0.03 g/kg IRP001 in feed (0-35 days), 2 days of washout
[10] = Group 4, 0.03 g/kg IRP001 in feed (0-35 days), 4 days of washout
[11] = Group 5, 0.03 g/kg IRP001 in feed (0-35 days), 7 days of washout
[12] = Group 6, 0.03 g/kg IRP001 in feed (0-28 days), 14 days of washout
[13] = Group 11, 0.3 g/kg IRP001 in feed (0-35 days), 7 days of washout
[14] = Group 12, 0.3 g/kg IRP001 in feed (0-28 days), 14 days of washout

## COc1ccc2cc3[n+](cc2c1OC)CCc1cc2c(cc1-3)OCO2 [Berberine, berberine]
E. coli causing scour
  MIC: 125 µg/mL
Clostridium Difficile; Clostridioides difficile, clinical isolate of C. difficile, test agent Berberine sulfate
  MBC: 1000 µg/mL
[1]; 1 g berberine in 1 kg of commercial feed over 42 days
  adverse reaction or unanticipated event: no adverse reaction or unanticipated event has been observed
[1]; [6]
  Histology index: Coccidia: 3.2
  Histology index: Cumulative Pathology: 9.6
  Histology index: Enteritis: 6.4
[1]; IRP001 0.5 g/kg in feed, pen 3
  Histology index: Coccidia: 1.6
  Histology index: Cumulative Pathology: 7.6
  Histology index: Enteritis: 6.0
[1]; IRP001 1 g/kg in feed, pen 4
  Histology index: Coccidia: 1.0
  Histology index: Cumulative Pathology: 9.2
  Histology index: Enteritis: 8.2
Clostridium Perfringens [2]
  MBC: 125 µg/mL
  MIC: 62.5 to 125 µg/mL
Clostridium Perfringens [2]; read-out: killing of viable cells
  inhibition at 125 µg/mL: 100%
[3]; 0.03 g/kg feed, before and after washout
  residue level in liver: below the limit of detection
[3]; 0.03 g/kg feed, with or without washout
  mean residue level in muscle tissues: not detectable
[3]; 0.3 g/kg feed, after 4 days washout, listed as IRP001
  residue level in muscle tissues (breast, lower leg, upper leg): below the LLOD
[3]; 0.3 g/kg feed, after a 14-day washout
  residue level in liver: below the limit of quantitation
[3]; [7]
  Mean residue, Breast: <LLOD (outputs indicating values lower than 2 ng/g are considered to be within baseline noise, below the LLOD, and as such are not detectable)
  Mean residue, Lower leg: <LLOD (outputs indicating values lower than 2 ng/g are considered to be within baseline noise, below the LLOD, and as such are not detectable)
  Mean residue, Upper leg: <LLOD (outputs indicating values lower than 2 ng/g are considered to be within baseline noise, below the LLOD, and as such are not detectable)
[3]; [8]
  Mean residue, Breast: <LLOD (outputs indicating values lower than 2 ng/g are considered to be within baseline noise, below the LLOD, and as such are not detectable)
  Mean residue, Lower leg: <LLOD (outputs indicating values lower than 2 ng/g are considered to be within baseline noise, below the LLOD, and as such are not detectable)
  Mean residue, Upper leg: <LLOD (outputs indicating values lower than 2 ng/g are considered to be within baseline noise, below the LLOD, and as such are not detectable)
[3]; [9]
  Mean residue, Breast: <LLOD (outputs indicating values lower than 2 ng/g are considered to be within baseline noise, below the LLOD, and as such are not detectable)
  Mean residue, Lower leg: <LLOD (outputs indicating values lower than 2 ng/g are considered to be within baseline noise, below the LLOD, and as such are not detectable)
  Mean residue, Upper leg: <LLOD (outputs indicating values lower than 2 ng/g are considered to be within baseline noise, below the LLOD, and as such are not detectable)
[3]; [10]
  Mean residue, Breast: <LLOD (outputs indicating values lower than 2 ng/g are considered to be within baseline noise, below the LLOD, and as such are not detectable)
  Mean residue, Lower leg: <LLOD (outputs indicating values lower than 2 ng/g are considered to be within baseline noise, below the LLOD, and as such are not detectable)
  Mean residue, Upper leg: <LLOD (outputs indicating values lower than 2 ng/g are considered to be within baseline noise, below the LLOD, and as such are not detectable)
[3]; [11]
  Mean residue, Breast: <LLOD (outputs indicating values lower than 2 ng/g are considered to be within baseline noise, below the LLOD, and as such are not detectable)
  Mean residue, Lower leg: <LLOD (outputs indicating values lower than 2 ng/g are considered to be within baseline noise, below the LLOD, and as such are not detectable)
  Mean residue, Upper leg: <LLOD (outputs indicating values lower than 2 ng/g are considered to be within baseline noise, below the LLOD, and as such are not detectable)
[3]; [12]
  Mean residue, Breast: <LLOD (outputs indicating values lower than 2 ng/g are considered to be within baseline noise, below the LLOD, and as such are not detectable)
  Mean residue, Lower leg: <LLOD (outputs indicating values lower than 2 ng/g are considered to be within baseline noise, below the LLOD, and as such are not detectable)
  Mean residue, Upper leg: <LLOD (outputs indicating values lower than 2 ng/g are considered to be within baseline noise, below the LLOD, and as such are not detectable)
[3]; Group 10, 0.3 g/kg IRP001 in feed (0-35 days), 4 days of washout
  Mean residue, Breast: <LLOD (outputs indicating values lower than 2 ng/g are considered to be within baseline noise, below the LLOD, and as such are not detectable)
[3]; [13]
  Mean residue, Breast: <LLOD (outputs indicating values lower than 2 ng/g are considered to be within baseline noise, below the LLOD, and as such are not detectable)
  Mean residue, Lower leg: <LLOD (outputs indicating values lower than 2 ng/g are considered to be within baseline noise, below the LLOD, and as such are not detectable)
  Mean residue, Upper leg: <LLOD (outputs indicating values lower than 2 ng/g are considered to be within baseline noise, below the LLOD, and as such are not detectable)
[3]; [14]
  Mean residue, Breast: <LLOD (outputs indicating values lower than 2 ng/g are considered to be within baseline noise, below the LLOD, and as such are not detectable)
  Mean residue, Lower leg: <LLOD (outputs indicating values lower than 2 ng/g are considered to be within baseline noise, below the LLOD, and as such are not detectable)
  Mean residue, Upper leg: <LLOD (outputs indicating values lower than 2 ng/g are considered to be within baseline noise, below the LLOD, and as such are not detectable)
[3]; estimated from typical lifetime consumption of chicken meat, breast or leg muscle tissue
  maximum acceptable residue (lower than one in a million risk of cancer): 13 ng berberine per gram of chicken meat
[3]; 0.03 g/kg IRP001 in feed days 0-28, 14 days of washout, euthanasia day 42
  Mean residue IRP001, Liver: <LLOD (outputs indicating values lower than 2 ng/g are considered to be within baseline noise, below the LLOD, and as such are not detectable)
[3]; 0.03 g/kg IRP001 in feed days 0-35, 0 days of washout, euthanasia day 35
  Mean residue IRP001, Liver: <LLOD (outputs indicating values lower than 2 ng/g are considered to be within baseline noise, below the LLOD, and as such are not detectable)
[3]; 0.03 g/kg IRP001 in feed days 0-35, 1 day of washout, euthanasia day 36
  Mean residue IRP001, Liver: <LLOD (outputs indicating values lower than 2 ng/g are considered to be within baseline noise, below the LLOD, and as such are not detectable)
[3]; 0.03 g/kg IRP001 in feed days 0-35, 2 days of washout, euthanasia day 37
  Mean residue IRP001, Liver: <LLOD (outputs indicating values lower than 2 ng/g are considered to be within baseline noise, below the LLOD, and as such are not detectable)
[3]; 0.03 g/kg IRP001 in feed days 0-35, 4 days of washout, euthanasia day 39
  Mean residue IRP001, Liver: <LLOD (outputs indicating values lower than 2 ng/g are considered to be within baseline noise, below the LLOD, and as such are not detectable)
[3]; 0.03 g/kg IRP001 in feed days 0-35, 7 days of washout, euthanasia day 42
  Mean residue IRP001, Liver: <LLOD (outputs indicating values lower than 2 ng/g are considered to be within baseline noise, below the LLOD, and as such are not detectable)
[4]; IRP001 0.03 g/kg
  % Cocci Mort.: 0.0b %
  Lesion Scores Average: 1.8b
  Lesion Scores E. acer.: 2.3b
  Lesion Scores E. maxima: 1.8bc
  Lesion Scores E. tenella: 1.2ab
[4]; IRP001 0.10 g/kg
  % Cocci Mort.: 0.0b %
  Lesion Scores Average: 1.5bc
  Lesion Scores E. acer.: 2.1bc
  Lesion Scores E. maxima: 1.5bcd
  Lesion Scores E. tenella: 0.8bcd

## CN[C@H](CC(C)C)C(=O)N[C@H]1C(=O)N[C@@H](CC(N)=O)C(=O)N[C@H]2C(=O)N[C@H]3C(=O)N[C@H](C(=O)N[C@H](C(=O)O)c4cc(O)cc(O)c4-c4cc3ccc4O)[C@H](O)c3ccc(c(Cl)c3)Oc3cc2cc(c3O[C@@H]2O[C@H](CO)[C@@H](O)[C@H](O)[C@H]2O[C@H]2C[C@](C)(N)[C@H](O)[C@H](C)O2)Oc2ccc(cc2Cl)[C@H]1O [Vancomycin, reference compound]
Clostridium Difficile
  MIC: within the expected range
Clostridium Perfringens [5]
  MIC: within the expected range
